Data from paper PMC8882856, “The affinity and selectivity of α‐adrenoceptor antagonists, antidepressants and antipsychotics for the human α2A, α2B, and α2C‐adrenoceptors and comparison with human α1 and β‐adrenoceptors” (Pharmacology Research & Perspectives, 2022).
pIC50: −log10 of the molar value. “Also recorded” adds a separate entry of the source. Like-named read-outs stand apart in the source and are kept apart here.

Legend:
[1] = target: human β2‐adrenoceptor (Homo sapiens, UniProt P07550); assay type: binding; conditions: for IC50 (log) β2: printed as log IC50 bound (negative) in the Log KD β2 column, 3H-CGP12177
[2] = target: T1, human α2A‐adrenoceptor (Homo sapiens, UniProt P08913); assay: ^3H‐rauwolscine whole cell competition binding, CHO‐α2A cells; conditions: for Selectivity ratio α2A vs α2B (higher affinity for α2A): ratio of KD values
T1 sequence (P08913 1-465): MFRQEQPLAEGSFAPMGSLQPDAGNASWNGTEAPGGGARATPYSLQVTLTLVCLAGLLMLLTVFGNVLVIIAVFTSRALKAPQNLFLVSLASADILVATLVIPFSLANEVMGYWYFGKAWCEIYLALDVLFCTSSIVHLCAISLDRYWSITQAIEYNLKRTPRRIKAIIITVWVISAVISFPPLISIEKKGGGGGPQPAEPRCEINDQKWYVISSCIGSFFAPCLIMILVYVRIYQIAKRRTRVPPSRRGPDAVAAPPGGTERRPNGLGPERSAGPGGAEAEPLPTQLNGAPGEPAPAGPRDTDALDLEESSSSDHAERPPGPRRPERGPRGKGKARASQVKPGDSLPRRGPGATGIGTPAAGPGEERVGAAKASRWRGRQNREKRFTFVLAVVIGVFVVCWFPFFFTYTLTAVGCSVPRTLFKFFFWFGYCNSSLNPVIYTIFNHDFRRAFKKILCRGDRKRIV

[3] = target: T2, human α2C‐adrenoceptor (Homo sapiens, UniProt P18825); assay: ^3H‐rauwolscine whole cell competition binding, CHO‐α2C cells; conditions: for Selectivity ratio α2A vs α2C (higher affinity for α2C) / Selectivity ratio α2B vs α2C (higher affinity for α2C): ratio of KD values
T2 sequence (P18825 1-462): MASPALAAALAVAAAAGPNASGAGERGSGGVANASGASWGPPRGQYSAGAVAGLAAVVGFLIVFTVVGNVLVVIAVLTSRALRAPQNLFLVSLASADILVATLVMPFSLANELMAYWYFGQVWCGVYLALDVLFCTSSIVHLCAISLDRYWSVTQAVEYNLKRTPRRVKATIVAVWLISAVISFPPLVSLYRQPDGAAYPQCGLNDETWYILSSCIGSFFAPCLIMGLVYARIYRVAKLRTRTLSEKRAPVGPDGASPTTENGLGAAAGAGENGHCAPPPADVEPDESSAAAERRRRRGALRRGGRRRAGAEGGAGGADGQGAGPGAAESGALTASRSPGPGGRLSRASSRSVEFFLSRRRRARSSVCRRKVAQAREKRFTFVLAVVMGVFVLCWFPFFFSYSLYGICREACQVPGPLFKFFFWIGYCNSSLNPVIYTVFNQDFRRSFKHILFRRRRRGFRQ

[4] = target: T3, human α2B‐adrenoceptor (Homo sapiens, UniProt P18089); assay: ^3H‐rauwolscine whole cell competition binding, CHO‐α2B cells; conditions: for IC50 (log) α2B: printed as log IC50 bound (negative) in the Log KD α2B column, 3H-rauwolscine
T3 sequence (P18089 1-450): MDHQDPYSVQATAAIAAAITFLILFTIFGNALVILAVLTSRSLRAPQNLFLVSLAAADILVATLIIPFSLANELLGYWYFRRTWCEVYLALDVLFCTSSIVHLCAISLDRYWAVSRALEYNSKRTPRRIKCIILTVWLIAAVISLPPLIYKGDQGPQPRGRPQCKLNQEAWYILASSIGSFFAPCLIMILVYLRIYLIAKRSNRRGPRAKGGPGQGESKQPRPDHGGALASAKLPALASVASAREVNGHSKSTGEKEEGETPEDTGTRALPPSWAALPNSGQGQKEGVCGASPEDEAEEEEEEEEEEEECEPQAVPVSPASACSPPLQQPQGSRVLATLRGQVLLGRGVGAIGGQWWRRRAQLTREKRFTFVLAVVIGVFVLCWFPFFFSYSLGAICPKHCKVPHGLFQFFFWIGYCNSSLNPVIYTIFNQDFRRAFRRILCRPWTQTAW

[5] = target: human β1‐adrenoceptor (Homo sapiens, UniProt P08588); conditions: for IC50 (log) β1: printed as log IC50 bound (negative) in the Log KD β1 column, 3H-CGP12177
[6] = given as log KD (negative values), 3H-rauwolscine whole cell binding, CHO cells, mean ± s.e.mean
[7] = ^3H‐CGP12177 whole cell binding, log values, mean ± s.e.mean, ^app = apparent KD, 'no binding to' = log top concentration
[8] = given as log KD (negative values), 3H-CGP12177 whole cell binding, CHO cells, mean ± s.e.mean

Chain of human β1‐adrenoceptor (P08588 whole entry): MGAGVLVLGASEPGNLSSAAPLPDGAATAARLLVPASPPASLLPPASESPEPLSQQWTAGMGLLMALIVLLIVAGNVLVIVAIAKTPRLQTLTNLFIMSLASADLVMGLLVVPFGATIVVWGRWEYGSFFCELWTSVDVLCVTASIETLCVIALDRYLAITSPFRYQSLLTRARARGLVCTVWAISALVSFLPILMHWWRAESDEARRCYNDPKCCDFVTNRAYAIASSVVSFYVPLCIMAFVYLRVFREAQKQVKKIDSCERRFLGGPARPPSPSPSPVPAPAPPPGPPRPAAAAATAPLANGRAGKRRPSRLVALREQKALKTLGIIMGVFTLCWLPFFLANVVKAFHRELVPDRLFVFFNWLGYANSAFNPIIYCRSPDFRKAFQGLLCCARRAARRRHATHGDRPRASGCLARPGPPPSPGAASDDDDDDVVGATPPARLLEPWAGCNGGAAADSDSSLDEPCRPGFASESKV
Chain of human β2‐adrenoceptor (P07550 whole entry): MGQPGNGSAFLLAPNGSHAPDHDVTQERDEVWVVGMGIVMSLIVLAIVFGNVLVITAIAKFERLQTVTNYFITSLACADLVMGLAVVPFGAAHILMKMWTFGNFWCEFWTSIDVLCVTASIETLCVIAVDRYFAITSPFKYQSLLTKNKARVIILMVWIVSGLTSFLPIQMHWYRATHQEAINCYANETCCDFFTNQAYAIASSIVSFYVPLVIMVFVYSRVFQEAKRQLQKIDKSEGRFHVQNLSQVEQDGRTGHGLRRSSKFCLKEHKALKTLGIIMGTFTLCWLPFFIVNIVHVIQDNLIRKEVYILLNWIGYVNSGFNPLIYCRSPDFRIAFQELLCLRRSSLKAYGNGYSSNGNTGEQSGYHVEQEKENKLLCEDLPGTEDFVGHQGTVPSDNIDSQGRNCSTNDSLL

Compound: COC(=O)C1=C(C)NC(C)=C(C(=O)OCCCN2CCC(c3ccccc3)(c3ccccc3)CC2)[C@H]1c1cccc([N+](=O)[O-])c1 [2‐niguldipine]
- pIC50 [1]: < 4.00

Compound: COc1ccccc1N1CCN(CCCNc2c(C)c(=O)n(C)c(=O)n2C)CC1 [5‐methyl‐urapidil]
- Log KD α2A [2]: −5.18 ± 0.05
- Log KD α2C [3]: −5.81 ± 0.07
- Log KD β2 [1]: −5.00 ± 0.07
- Log KD α2B [4]: −5.17 ± 0.05

Compound: CC(C)(C)NCC(O)COc1cccc2[nH]c(=O)[nH]c12 (centres unmarked) [CGP12177]
- pIC50 [2]: < 3.00
- pIC50 [3]: < 3.00
- Log KD α2B [4, 6]: No bind to -3
- Binding at α2B (result in words) ([4]; up to log concentration -3): No binding -3

Compound: COc1cccc(OC)c1OCCNCC1CSc2ccccc2O1 (centres unmarked) [benoxathian]
- Log KD α2A [2]: −7.17 ± 0.02
- Selectivity ratio α2A vs α2B (higher affinity for α2A) [2]: 16.2
- Log KD β1 [5, 7]: −4.55 ± 0.03^app
- Log KD α2C [3]: −7.75 ± 0.03
- Selectivity ratio α2A vs α2C (higher affinity for α2C) [3]: 3.8
- Selectivity ratio α2B vs α2C (higher affinity for α2C) [3]: 61.7
- Log KD β2 [1, 7]: −5.08 ± 0.06
- Log KD α2B [4]: −5.96 ± 0.06

Compound: CN(C)CCCC1(c2ccc(F)cc2)OCc2cc(C#N)ccc21 (centres unmarked) [citalopram]
- pIC50 [2]: < 4.00
- Log KD β1 [5, 7]: No binding to −4
- Log KD β1 [5, 8]: No binding to -4
- pIC50 [3]: < 4.00
- Log KD β2 [1, 7]: No binding to −4
- Log KD β2 [1, 8]: No binding to -4

Compound: Cc1ccc(OCC(O)C(C)NC(C)C)c2c1CCC2 (centres unmarked) [ICI 118551]
- Log KD α2A [2, 6]: -5.03 ± 0.03
- Log KD α2C [3, 6]: -5.05 ± 0.04
- IC50 (log) α2B [4]: IC50>-4

Compound: CC(C)(Cc1c[nH]c2ccc(Cl)cc12)NCCOc1ccccc1OCC1CC1 [RS17053]
- Log KD α2A [2]: −6.20 ± 0.11
- Selectivity ratio α2A vs α2B (higher affinity for α2A) [2]: 3.5
- Log KD β1 [5]: −5.44 ± 0.04
- Log KD α2C [3]: −6.35 ± 0.08
- Selectivity ratio α2A vs α2C (higher affinity for α2C) [3]: 1.4
- Selectivity ratio α2B vs α2C (higher affinity for α2C) [3]: 5.0
- Log KD β2 [1]: −6.42 ± 0.06
- Log KD α2B [4]: −5.65 ± 0.07

Compound: CN1[C@H]2C[C@H](OC(=O)[C@H](CO)c3ccccc3)C[C@@H]1[C@@H](O)C2 [anisodamine]
- IC50 (log) α2A, IC50>top concentration used [2]: IC50>−3
- Log KD β1 [5]: no binding to −3; also recorded: no binding to -3
- Log KD α2C [3]: −3.56 ± 0.07^app
- Log KD β2 [1]: no binding to −3; also recorded: no binding to -3
- IC50 (log) α2B, IC50>top concentration used [4]: IC50>−3

Compound: CN1CC[C@]2(CCN3CCc4c(oc5ccccc45)[C@@H]3C2)N(C)C1=O [MK-912]
- Log KD α2A [2]: -8.71 ± 0.05
- Selectivity ratio α2A vs α2B (α2A-selective) [2]: 3.6
- IC50 (log) β1 [5]: IC50>-4
- Log KD α2C [3]: -9.82 ± 0.11
- Selectivity ratio α2A vs α2C (α2C-selective) [3]: 12.9
- Selectivity ratio α2B vs α2C (α2C-selective) [3]: 45.7
- IC50 (log) β2 [1]: IC50>-4
- Log KD α2B [4, 6]: -8.16 ± 0.10

Compound: COc1cc2nc(N3CCN(C(=O)COc4c(OC)cccc4C(C)C)CC3)nc(N)c2cc1OC [Rec15-2615]
- Log KD α2A, apparent affinity (app) ([2]; log KD (negative), apparent KD: maximum concentration inhibited most but not all specific binding, IC50 from extrapolated curve): -5.53 ± 0.12^app
- IC50 (log) β1 [5]: IC50>-4
- Selectivity ratio α2A vs α2C (α2C-selective) ([3]; fold, higher affinity at α2C than α2A, 1 = no selectivity): 10.7
- Log KD α2C [3, 6]: -6.56 ± 0.13
- IC50 (log) β2 [1]: IC50>-4
- IC50 (log) α2B [4]: IC50>-4.5
